Data reported in PMC5291322, “Development of Cell‐Permeable, Non‐Helical Constrained Peptides to Target a Key Protein–Protein Interaction in Ovarian Cancer” (Angewandte Chemie (International Ed. in English), 2016).
Non-standard residues stand in square brackets, D forms with d. Residues, ends and D or L forms follow the SMILES beside them. *: point of attachment. 5TAMRA = CN(C)c1ccc2c(c1)Oc1cc(N(C)C)ccc1C21OC(=O)c2cc(C(=O)*)ccc21; Dap(N3) = [N-]=[N+]=NC[C@H](N)C(=O)O; Aha = [N-]=[N+]=NCC[C@H](N)C(=O)O; Ahx = NCCCCCC(=O)O

What was measured:
mImportin α1 ΔIBB = biological target: T1, mImportin α1 ΔIBB (Mus musculus, UniProt P52293); experiment: Direct fluorescence polarisation (FP) binding assay; conditions: 60 nM TAMRA-labelled peptide, 15-point 2.0-fold serial dilutions of mImportin α1 ΔIBB, 20 mM HEPES pH 8, 200 mM NaCl, 15 min at room temperature, ex 540/em 590 nm, one-site model, triplicates, read-out: Kd, direct FP assay binding affinity
T1 construct: made in house; host or cells: E. coli BL21 (DE3) CodonPlus-RIL
Method: The unconstrained peptides Pep1 and Pep2, as well as four constrained peptides, were synthesized. Their binding affinities for mImportin α1 ΔIBB were evaluated in fluorescence polarization assays (Figure 5 C). […]
Direct Fluorescence Polarisation Assay
Dissociation constants (Kd) for the interaction of TAMRA-5-labelled stapled peptides with mImportin α1 ΔIBB were determined by direct fluorescence polarisation (FP) measurement. TAMRA-5 belongs to the family of rhodamine dyes and has been used extensively for the study of PPIs and DNA-protein interactions by FP assays.[31-32] The mImportin α1 ΔIBB isoform was used since it is well characterised and has been used previously.[33] A one-site binding model was assumed with mImportin α1. mImportin α1 ΔIBB protein was purified in FP buffer (20 mM HEPES (pH 8), 200 mM NaCl) and 1 mM stock solutions of peptides were made up in FP buffer with 3 % v/v DMSO. Accurate mImportin α1 ΔIBB and stapled peptide concentrations were determined by amino acid analysis (PNAC facilities, Department of Biochemistry, University of Cambridge). 15-point dose-response curves were constructed using 2.0-fold serial dilutions of mImportin α1 ΔIBB in a mixture with a final concentration of 60 nM TAMRA-labelled peptide. 20 μL reaction volumes were pipetted into […] black polystyrene assay plates (Corning 384 Well Low Flange Black Flat

JHOC9 cells = experiment: Cell permeability assay, live-cell confocal fluorescence microscopy; assay type: cell-based; conditions: 10 μM TAMRA-labelled peptide in medium, 2 h incubation, Hoechst 33342 in the final 30 min, PBS wash, TAMRA fluorescence read-out, qualitative
Source text: Live‐cell fluorescence microscopy studies were undertaken to assess the cell permeability of the synthesized TAMRA‐labelled linear and constrained peptides (Figure 7).
Figure 7 Cell‐permeability studies for the linear and constrained peptides using JHOC9 cells. Images were taken on a Leica tandem confocal microscope using a 40 X objective.
HEK293T cells were cultivated in Dulbecco’s Modified Eagle medium (DMEM) (1X) supplemented with 5 % foetal bovine serum (FBS) (Invitrogen) and 0.5 % penicillin/streptomycin (P/S). CCC cell lines PEO1, JHOC5, JHOC7, JHOC9, OVISE, SKOV3 and Normal Ovarian Surface Epithelial (IOSE) cells were grown in RPMI 1640 medium (1X) supplemented with 10 % FBS and 1 % P/S. All cell lines were maintained at 37 °C in 5 % CO2 and were mycoplasma tested on a regular basis (Biorepository Core, CRUK CI, Cambridge). Cell counts were conducted using the Vi-CELL Cell Viability Analyzer. […]
Cell permeability assay and confocal microscopy
Cells were grown in chambered coverslips (μ–Slide 8 Well ibiTreat, Ibidi) for live-cell imaging. When the desired degree of confluency was reached, the medium was replaced with 10 μM solutions of constrained peptides in medium. For live-cell imaging, cells were incubated with the constrained peptide solutions for 2 h and during the final 30 min, Hoechst stain 33342 (1 μM, Thermo Fisher Scientific) was added. Cells were washed with PBS before live-cell imaging. Fresh medium was added and cells were imaged live using a Leica Tandem confocal microscope. Images were generated as a maximum intensity projection of five z-stacked […]
Aldrich, Mission RNAi, TRC2-pLKO-puro Vector) were used. All plasmids were confirmed by restriction digest and agarose gel electrophoresis.
For each transfection sample 16 μg transfer vector, 10.4 μg pMDL/pRRE, 4 μg pRSV-Rev and 5.6 μg pVSV-G were used. Lentiviruses were produced in the HEK293T packaging cell line. The day before transfection, 16 x 10^6 HEK293T cells were plated in […] (Corning) using Opti-MEM reduced-serum medium (30 mL, 1 X, Invitrogen) so that cells were 90–95 % confluent on the day of transfection. After 24 h the medium was removed and replaced with DMEM growth medium (16 mL, Invitrogen) containing serum. For each transfection sample DNA-Lipofectamine complexes were prepared as follows: In a sterile 15 mL tube, 16 μg transfer vector, 10.4 μg pMDL/pRRE, 4 μg pRSV-REV and 5.6 μg pVSV-G were diluted in Opti-MEM medium (5 mL). In a separate sterile 15 mL tube, Lipofectamine 2000 (115 μL, Life Technologies) was diluted in Opti-MEM medium (5 mL). Both solutions were incubated for 5 min at room temperature and then combined.
Incubation for 20 min at room temperature allowed DNA-Lipofectamine complexes to form, which were then added dropwise to each plate of HEK293T cells. […]

SMILES	Kd (mImportin α1 ΔIBB)	cell permeability (JHOC9 cells)
CSCC[C@@H]1NC(=O)[C@H](CCCCN)NC(=O)[C@H](CCCCN)NC(=O)[C@@H](NC(=O)[C@@H](NC(=O)CCCCCNC(=O)c2ccc3c(c2)C(=O)OC32c3ccc(N(C)C)cc3Oc3cc(N(C)C)ccc32)[C@@H](C)O)Cn2cc(nn2)CNC(=O)NCc2cn(nn2)C[C@@H](C(=O)N[C@@H](CCCNC(=N)N)C(N)=O)NC(=O)[C@H](CCCNC(=N)N)NC(=O)[C@H](CCCNC(=N)N)NC1=O [Pep1A]	95.9 ± 27.3 µM	
CSCC[C@@H]1NC(=O)[C@H](CCCCN)NC(=O)[C@H](CCCCN)NC(=O)[C@@H](NC(=O)[C@@H](NC(=O)CCCCCNC(=O)c2ccc3c(c2)C(=O)OC32c3ccc(N(C)C)cc3Oc3cc(N(C)C)ccc32)[C@@H](C)O)Cn2cc(nn2)CCNC(=O)NCCc2cn(nn2)C[C@@H](C(=O)N[C@@H](CCCNC(=N)N)C(N)=O)NC(=O)[C@H](CCCNC(=N)N)NC(=O)[C@H](CCCNC(=N)N)NC1=O [Pep1B]	48.2 ± 4.88 µM	retained their cell permeability
CSCC[C@@H]1NC(=O)[C@H](CCCCN)NC(=O)[C@H](CCCCN)NC(=O)[C@@H](NC(=O)[C@@H](NC(=O)CCCCCNC(=O)c2ccc3c(c2)C(=O)OC32c3ccc(N(C)C)cc3Oc3cc(N(C)C)ccc32)[C@@H](C)O)Cn2cc(nn2)CCCNC(=O)NCCCc2cn(nn2)C[C@@H](C(=O)N[C@@H](CCCNC(=N)N)C(N)=O)NC(=O)[C@H](CCCNC(=N)N)NC(=O)[C@H](CCCNC(=N)N)NC1=O [Pep1C]	55.9 ± 2.43 µM	
CSCC[C@H](NC(=O)[C@H](CCCCN)NC(=O)[C@H](CCCCN)NC(=O)[C@H](CN=[N+]=[N-])NC(=O)[C@@H](NC(=O)CCCCCNC(=O)c1ccc2c(c1)C(=O)OC21c2ccc(N(C)C)cc2Oc2cc(N(C)C)ccc21)[C@@H](C)O)C(=O)N[C@@H](CCCNC(=N)N)C(=O)N[C@@H](CCCNC(=N)N)C(=O)N[C@@H](CN=[N+]=[N-])C(=O)N[C@@H](CCCNC(=N)N)C(N)=O [Pep1] ({5TAMRA-Ahx}-T[Dap(N3)]KKMRR[Dap(N3)]R-NH2)	2.06 ± 0.07 µM	good cell permeability
CSCC[C@@H]1NC(=O)[C@H](CCCCN)NC(=O)[C@H](CCCCN)NC(=O)[C@@H](NC(=O)[C@@H](NC(=O)CCCCCNC(=O)c2ccc3c(c2)C(=O)OC32c3ccc(N(C)C)cc3Oc3cc(N(C)C)ccc32)[C@@H](C)O)CCn2cc(nn2)CNC(=O)NCc2cn(nn2)CC[C@@H](C(=O)N[C@@H](CCCNC(=N)N)C(N)=O)NC(=O)[C@H](CCCNC(=N)N)NC(=O)[C@H](CCCNC(=N)N)NC1=O [Pep2A]	4.54 µM	retained their cell permeability
CSCC[C@H](NC(=O)[C@H](CCCCN)NC(=O)[C@H](CCCCN)NC(=O)[C@H](CCN=[N+]=[N-])NC(=O)[C@@H](NC(=O)CCCCCNC(=O)c1ccc2c(c1)C(=O)OC21c2ccc(N(C)C)cc2Oc2cc(N(C)C)ccc21)[C@@H](C)O)C(=O)N[C@@H](CCCNC(=N)N)C(=O)N[C@@H](CCCNC(=N)N)C(=O)N[C@@H](CCN=[N+]=[N-])C(=O)N[C@@H](CCCNC(=N)N)C(N)=O [Pep2] ({5TAMRA-Ahx}-T[Aha]KKMRR[Aha]R-NH2)	6.84 ± 0.26 µM	good cell permeability
CN(C)c1ccc2c(-c3ccc(C(=O)O)cc3C(=O)[O-])c3ccc(N(C)C)cc3[o+]c2c1 [TAMRA-5, 5-CARBOXYTETRAMETHYLRHODAMINE, reference compound]	~122 µM	
